Values after ≈ are worked out from the molar mass of the structure shown. Where two headings read alike, the source gives them in different places. One block for each compound: values may come before it.
Experiments:
Escherichia coli = experiment: Broth microdilution MIC (Example 12)
Klebsiella pneumoniae = experiment: Broth microdilution MIC (Example 12)
Pseudomonas aeruginosa = experiment: Broth microdilution MIC (Example 12)
Acinetobacter baumannii = experiment: Broth microdilution MIC (Example 12)
[1] = test system: vancomycin-intermediate Staphylococcus aureus (VISA); experiment: Broth microdilution MIC (Example 12)
[2] = test system: Staphylococcus aureus (MRSA); experiment: Broth microdilution MIC (Example 11)
E. faecalis = experiment: Broth microdilution MIC (Example 11); settings: Enterococcus faecalis, VRE, E. faecalis MMX 8962; VRE Lev^R Cip^R Ery^R
S. pneumoniae = experiment: Broth microdilution MIC (Example 11); settings: Streptococcus pneumoniae
S. pyogenes = experiment: Broth microdilution MIC (Example 11); settings: Streptococcus pyogenes
S. agalactiae = experiment: Broth microdilution MIC (Example 11); settings: Streptococcus agalactiae
[3] = MRSA, S. aureus MMX 6311, MRSA Lev^R Cip^R CC^R Ery^R Ox^R

MIC (Escherichia coli; E. coli ATCC 35218, ESBL): ≤0.008 mg/L
MIC (Escherichia coli; E. coli ATCC 35218, QC organism (Table 102)): ≤0.008 mg/L
MIC (Escherichia coli; E. coli ATCC BAA-2471, NDM): >8 mg/L
MIC (Escherichia coli; E. coli CDC 114, ESBL/KPC): 4 mg/L (≈ 11.1 µM)
MIC (Escherichia coli; E. coli CDC 118, ESBL/NDM): 8 mg/L (≈ 22.1 µM)
MIC (Escherichia coli; E. coli CDC 435, NDM): >8 mg/L
MIC (Escherichia coli; E. coli CDC 451, KPC): >8 mg/L
MIC (Escherichia coli; E. coli CDC 503, ESBL/NDM): >8 mg/L
MIC (Escherichia coli; E. coli MMX 5745, KPC): 8 mg/L (≈ 22.1 µM)
MIC (Escherichia coli; E. coli MMX 5755, ESBL): 8 mg/L (≈ 22.1 µM)
MIC (Escherichia coli; E. coli MMX 5756, ESBL): 4 mg/L (≈ 11.1 µM)
MIC (Escherichia coli; E. coli MMX 5758, ESBL): 8 mg/L (≈ 22.1 µM)
MIC (Klebsiella pneumoniae; K. pneumoniae ATCC BAA-1705, ESBL/KPC): >8 mg/L
MIC (Klebsiella pneumoniae; K. pneumoniae ATCC BAA-1705, QC organism (Table 102)): >8 mg/L
MIC (Klebsiella pneumoniae; K. pneumoniae CDC 112, KPC): 4 mg/L (≈ 11.1 µM)
MIC (Klebsiella pneumoniae; K. pneumoniae CDC 113, ESBL/KPC): 4 mg/L (≈ 11.1 µM)
MIC (Klebsiella pneumoniae; K. pneumoniae CDC 115, ESBL/KPC): >8 mg/L
MIC (Klebsiella pneumoniae; K. pneumoniae CDC 120, ESBL/KPC): >8 mg/L
MIC (Klebsiella pneumoniae; K. pneumoniae CDC 126, ESBL/KPC): 0.015 mg/L (≈ 0.0415 µM)
MIC (Klebsiella pneumoniae; K. pneumoniae CDC 129, ESBL/KPC): >8 mg/L
MIC (Klebsiella pneumoniae; K. pneumoniae CDC 135, ESBL/VIM): >8 mg/L
MIC (Klebsiella pneumoniae; K. pneumoniae CDC 138, ESBL/NDM): >8 mg/L
MIC (Klebsiella pneumoniae; K. pneumoniae CDC 158, ESBL/NDM/OXA): 4 mg/L (≈ 11.1 µM)
MIC (Klebsiella pneumoniae; K. pneumoniae MMX 9029, ESBL): 0.12 mg/L (≈ 0.332 µM)
MIC (Pseudomonas aeruginosa; P. aeruginosa CDC 230, VIM/OXA): 8 mg/L (≈ 22.1 µM)
MIC (Pseudomonas aeruginosa; P. aeruginosa CDC 231, KPC/OXA): >8 mg/L
MIC (Pseudomonas aeruginosa; P. aeruginosa CDC 241, IMP/OXA): 8 mg/L (≈ 22.1 µM)
MIC (Pseudomonas aeruginosa; P. aeruginosa CDC 246, NDM/OXA): >8 mg/L
MIC (Pseudomonas aeruginosa; P. aeruginosa CDC 250, NDM/OXA): >8 mg/L
MIC (Pseudomonas aeruginosa; P. aeruginosa CDC 356, KPC): 0.12 mg/L (≈ 0.332 µM)
MIC (Pseudomonas aeruginosa; P. aeruginosa CDC 439, IMP): 8 mg/L (≈ 22.1 µM)
MIC (Pseudomonas aeruginosa; P. aeruginosa CDC 444, VIM): 8 mg/L (≈ 22.1 µM)
MIC (Pseudomonas aeruginosa; P. aeruginosa CDC 457, VIM): >8 mg/L
MIC (Pseudomonas aeruginosa; P. aeruginosa CDC 516, KPC/AmpC): 0.25 mg/L (≈ 0.692 µM)
MIC (Pseudomonas aeruginosa; P. aeruginosa CDC 518, KPC/AmpC): >8 mg/L
MIC (Acinetobacter baumannii; A. baumannii CDC 273, ESBL/OXA): >8 mg/L
MIC (Acinetobacter baumannii; A. baumannii CDC 274, ESBL/OXA): 8 mg/L (≈ 22.1 µM)
MIC (Acinetobacter baumannii; A. baumannii CDC 275, ESBL/OXA): 4 mg/L (≈ 11.1 µM)
MIC (Acinetobacter baumannii; A. baumannii CDC 277, ESBL/OXA): 8 mg/L (≈ 22.1 µM)
MIC (Acinetobacter baumannii; A. baumannii CDC 284, ESBL/OXA): 8 mg/L (≈ 22.1 µM)
MIC (Acinetobacter baumannii; A. baumannii CDC 307, OXA): 8 mg/L (≈ 22.1 µM)
MIC (Acinetobacter baumannii; A. baumannii CDC 308, ESBL/OXA): 4 mg/L (≈ 11.1 µM)
MIC (Acinetobacter baumannii; A. baumannii CDC 311, OXA): 2 mg/L (≈ 5.53 µM)
MIC (Acinetobacter baumannii; A. baumannii CDC 312, OXA): 2 mg/L (≈ 5.53 µM)
MIC (Acinetobacter baumannii; A. baumannii CDC 313, ESBL/OXA): 2 mg/L (≈ 5.53 µM)
MIC (Acinetobacter baumannii; A. baumannii NCTC 13304, OXA): 1 mg/L (≈ 2.77 µM)
MIC ([1]; S. aureus NRS 1 (hVISA)): 4 mg/L (≈ 11.1 µM)
MIC ([1]; S. aureus NRS 2): 4 mg/L (≈ 11.1 µM)
MIC ([1]; S. aureus NRS 3): >8 mg/L
MIC ([1]; S. aureus NRS 4): 4 mg/L (≈ 11.1 µM)
MIC ([1]; S. aureus NRS 13): 0.12 mg/L (≈ 0.332 µM)
MIC ([1]; S. aureus NRS 18): 4 mg/L (≈ 11.1 µM)
MIC ([1]; S. aureus NRS 22): 8 mg/L (≈ 22.1 µM)
MIC ([1]; S. aureus NRS 24 (hVISA)): >8 mg/L
MIC ([1]; S. aureus NRS 27): 8 mg/L (≈ 22.1 µM)
SMILES: C[C@H]1COc2c(N3CCN(C)CC3)c(F)cc3c(=O)c(C(=O)O)cn1c23 [LVX]

SMILES: Cc1onc(-c2ccccc2)c1C(=O)N[C@@H]1C(=O)N2[C@@H]1SC(C)(C)[C@@H]2C(=O)O [Oxacillin]
MIC [2, 3]: 32 mg/L (≈ 79.7 µM)
MIC (E. faecalis): 16 mg/L (≈ 39.9 µM)

SMILES: CN[C@H](CC(C)C)C(=O)N[C@H]1C(=O)N[C@@H](CC(N)=O)C(=O)N[C@H]2C(=O)N[C@H]3C(=O)N[C@H](C(=O)N[C@H](C(=O)O)c4cc(O)cc(O)c4-c4cc3ccc4O)[C@H](O)c3ccc(c(Cl)c3)Oc3cc2cc(c3O[C@@H]2O[C@H](CO)[C@@H](O)[C@H](O)[C@H]2O[C@H]2C[C@](C)(N)[C@H](O)[C@H](C)O2)Oc2ccc(cc2Cl)[C@H]1O [vancomycin]
MIC ([2]; ATCC29213|MRSA|MSSA, S. aureus MMX 101 (ATCC 29213), QC, MSSA): 1 mg/L (≈ 0.69 µM)
MIC ([2]; MRSA, S. aureus MMX 5373, MRSA Lev^R Cip^R CC^R Ery^R Ox^R): 2 mg/L (≈ 1.38 µM)
MIC [2, 3]: 0.25 mg/L (≈ 0.173 µM)
MIC ([2]; MRSA, S. aureus MMX 9203, MRSA Lev^R Cip^R Ery^R Ox^R): 2 mg/L (≈ 1.38 µM)
MIC ([2]; MRSA, S. aureus MMX 9204, MRSA Lev^R Cip^R Ery^R Ox^R): 1 mg/L (≈ 0.69 µM)
MIC ([2]; MRSA, S. aureus MMX 9205, MRSA Lev^R Cip^R CC^R Ery^R Ox^R): 2 mg/L (≈ 1.38 µM)
MIC (S. pneumoniae; ATCC49619, S. pneumoniae MMX 6837 (ATCC 49619), QC): 0.25 mg/L (≈ 0.173 µM)
MIC (S. pneumoniae; S. pneumoniae MMX 880, Lev^R SXT^R CC^R Ery^R Pen^R): 0.5 mg/L (≈ 0.345 µM)
MIC (S. pneumoniae; S. pneumoniae MMX 937, Mem^R SXT^R CC^R Ery^R Pen^R): 0.5 mg/L (≈ 0.345 µM)
MIC (S. pneumoniae; S. pneumoniae MMX 3959, CC^R Ery^R): 0.5 mg/L (≈ 0.345 µM)
MIC (S. pneumoniae; S. pneumoniae MMX 5440, Mem^R SXT^R CC^R Ery^R Pen^R): 0.25 mg/L (≈ 0.173 µM)
MIC (S. pneumoniae; S. pneumoniae MMX 5445, Mem^R SXT^R CC^R Ery^R Pen^R): 0.25 mg/L (≈ 0.173 µM)
MIC (S. pneumoniae; S. pneumoniae MMX 8133, Mem^R SXT^R CC^R Ery^R Pen^R): 0.25 mg/L (≈ 0.173 µM)
MIC (S. pyogenes): 0.5 mg/L (≈ 0.345 µM)
MIC (S. agalactiae; S. agalactiae MMX 3741, ERY^R CC^R): 0.5 mg/L (≈ 0.345 µM)
MIC (S. agalactiae; S. agalactiae MMX 3743, ERY^R CC^R): 0.5 mg/L (≈ 0.345 µM)
MIC (S. agalactiae; S. agalactiae MMX 4077, ERY^R CC^R): 0.5 mg/L (≈ 0.345 µM)
MIC (S. agalactiae; S. agalactiae MMX 4079, ERY^R CC^R Pen^R MEM^R): 2 mg/L (≈ 1.38 µM)
MIC (S. agalactiae; S. agalactiae MMX 4086, ERY^R CC^R): 1 mg/L (≈ 0.69 µM)
MIC ([1]; Staphylococcus aureus, NRS13 / VISA, read-out: MIC values): 2 mg/L (≈ 1.38 µM)
